Experimental data reported in PubChem BioAssay AID1963837 (Molecular Pharmacology Branch, DTP, NCI, 2024).

Each molecule was assayed on 843126-344-R-J1-PDC complex spheroid viability (assay: Anticancer human tumor 843126-344-R-J1-PDC patient-derived melanoma cell line growth inhibition [POLQ]). Conditions: second compound 1 µM; first compound 0.1 µM; hits give low values.
Procedure, shortened: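 PDC + HUVEC + MSC complex spheroids; POLQ inhibitors ± partner drugs; top conc. at/near clinical Cmax, else 10 microM (SN-38 1 microM), half-log dilutions; 37 degrees C, 5% CO2.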
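Further: spheroids exposed to drugs for seven days before readout.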

Row | Structure (SMILES) | viability, T/C [%]
1 | CC1COCCN1c1cc(C2(S(C)(=N)=O)CC2)nc(-c2ccnc3[nH]ccc23)n1 (configuration not stated) + Nc1ccc(C#CCN(C(=O)Cc2ncc(C(F)(F)F)cc2C(F)(F)F)c2ccc(F)cc2)nn1 | 92.8
2 | COc1ccc([C@@H](O)c2cc(-c3ncnc4cc(N5CCOCC5)ccc34)c(F)cc2Cl)nn1 + Nc1ccc(C#CCN(C(=O)Cc2ncc(C(F)(F)F)cc2C(F)(F)F)c2ccc(F)cc2)nn1 | 102
3 | Cn1ncnc1[C@H]1c2n[nH]c(=O)c3cc(F)cc(c23)N[C@@H]1c1ccc(F)cc1 + Nc1ccc(C#CCN(C(=O)Cc2ncc(C(F)(F)F)cc2C(F)(F)F)c2ccc(F)cc2)nn1 | 73.1

Same assay, conditions: second compound 1 µM; first compound 0.316 µM; hits give low values

Row | Structure (SMILES) | viability, T/C [%]
4 | C=CC(=O)N1CCN(c2nc(=O)n(-c3c(C)ccnc3C(C)C)c3nc(-c4c(O)cccc4F)c(F)cc23)C(C)C1 (configuration not stated) + Nc1ccc(C#CCN(C(=O)Cc2ncc(C(F)(F)F)cc2C(F)(F)F)c2ccc(F)cc2)nn1 | 107
5 | CC(C)n1c(=O)n(C)c2cnc3cc(F)c(-c4ccc(OCCCN5CCCCC5)nc4)cc3c21 + Nc1ccc(C#CCN(C(=O)Cc2ncc(C(F)(F)F)cc2C(F)(F)F)c2ccc(F)cc2)nn1 | 90.9
6 | CC1COCCN1c1cc(-c2ccnn2C)c2ccnc(-c3ccn[nH]3)c2n1 (configuration not stated) + Nc1ccc(C#CCN(C(=O)Cc2ncc(C(F)(F)F)cc2C(F)(F)F)c2ccc(F)cc2)nn1 | 55.9
7 | CC1COCCN1c1cc(C2(S(C)(=N)=O)CC2)nc(-c2ccnc3[nH]ccc23)n1 (configuration not stated) + Nc1ccc(C#CCN(C(=O)Cc2ncc(C(F)(F)F)cc2C(F)(F)F)c2ccc(F)cc2)nn1 | 86.3
8 | COc1ccc([C@@H](O)c2cc(-c3ncnc4cc(N5CCOCC5)ccc34)c(F)cc2Cl)nn1 + Nc1ccc(C#CCN(C(=O)Cc2ncc(C(F)(F)F)cc2C(F)(F)F)c2ccc(F)cc2)nn1 | 91.8

Same assay, conditions: second compound 1 µM; first compound 1 µM; hits give low values

Row | Structure (SMILES) | viability, T/C [%]
9 | C=CC(=O)N1CCN(c2nc(=O)n(-c3c(C)ccnc3C(C)C)c3nc(-c4c(O)cccc4F)c(F)cc23)C(C)C1 (configuration not stated) + Nc1ccc(C#CCN(C(=O)Cc2ncc(C(F)(F)F)cc2C(F)(F)F)c2ccc(F)cc2)nn1 | 94.7
10 | CC(C)n1c(=O)n(C)c2cnc3cc(F)c(-c4ccc(OCCCN5CCCCC5)nc4)cc3c21 + Nc1ccc(C#CCN(C(=O)Cc2ncc(C(F)(F)F)cc2C(F)(F)F)c2ccc(F)cc2)nn1 | 93.5
11 | CC1COCCN1c1cc(-c2ccnn2C)c2ccnc(-c3ccn[nH]3)c2n1 (configuration not stated) + Nc1ccc(C#CCN(C(=O)Cc2ncc(C(F)(F)F)cc2C(F)(F)F)c2ccc(F)cc2)nn1 | 49.8
12 | CC1COCCN1c1cc(C2(S(C)(=N)=O)CC2)nc(-c2ccnc3[nH]ccc23)n1 (configuration not stated) + Nc1ccc(C#CCN(C(=O)Cc2ncc(C(F)(F)F)cc2C(F)(F)F)c2ccc(F)cc2)nn1 | 90.5
13 | COc1ccc([C@@H](O)c2cc(-c3ncnc4cc(N5CCOCC5)ccc34)c(F)cc2Cl)nn1 + Nc1ccc(C#CCN(C(=O)Cc2ncc(C(F)(F)F)cc2C(F)(F)F)c2ccc(F)cc2)nn1 | 88.5

Same assay, conditions: second compound 1 µM; first compound 3.16 µM; hits give low values

Row | Structure (SMILES) | viability, T/C [%]
14 | C=CC(=O)N1CCN(c2nc(=O)n(-c3c(C)ccnc3C(C)C)c3nc(-c4c(O)cccc4F)c(F)cc23)C(C)C1 (configuration not stated) + Nc1ccc(C#CCN(C(=O)Cc2ncc(C(F)(F)F)cc2C(F)(F)F)c2ccc(F)cc2)nn1 | 104
15 | CC(C)n1c(=O)n(C)c2cnc3cc(F)c(-c4ccc(OCCCN5CCCCC5)nc4)cc3c21 + Nc1ccc(C#CCN(C(=O)Cc2ncc(C(F)(F)F)cc2C(F)(F)F)c2ccc(F)cc2)nn1 | 81
16 | CC1COCCN1c1cc(-c2ccnn2C)c2ccnc(-c3ccn[nH]3)c2n1 (configuration not stated) + Nc1ccc(C#CCN(C(=O)Cc2ncc(C(F)(F)F)cc2C(F)(F)F)c2ccc(F)cc2)nn1 | 41.3
17 | CC1COCCN1c1cc(C2(S(C)(=N)=O)CC2)nc(-c2ccnc3[nH]ccc23)n1 (configuration not stated) + Nc1ccc(C#CCN(C(=O)Cc2ncc(C(F)(F)F)cc2C(F)(F)F)c2ccc(F)cc2)nn1 | 76.3
18 | COc1ccc([C@@H](O)c2cc(-c3ncnc4cc(N5CCOCC5)ccc34)c(F)cc2Cl)nn1 + Nc1ccc(C#CCN(C(=O)Cc2ncc(C(F)(F)F)cc2C(F)(F)F)c2ccc(F)cc2)nn1 | 74.5

Same assay, conditions: second compound 1 µM; first compound 10 µM; hits give low values

Row | Structure (SMILES) | viability, T/C [%]
19 | C=CC(=O)N1CCN(c2nc(=O)n(-c3c(C)ccnc3C(C)C)c3nc(-c4c(O)cccc4F)c(F)cc23)C(C)C1 (configuration not stated) + Nc1ccc(C#CCN(C(=O)Cc2ncc(C(F)(F)F)cc2C(F)(F)F)c2ccc(F)cc2)nn1 | 85.4
20 | CC(C)n1c(=O)n(C)c2cnc3cc(F)c(-c4ccc(OCCCN5CCCCC5)nc4)cc3c21 + Nc1ccc(C#CCN(C(=O)Cc2ncc(C(F)(F)F)cc2C(F)(F)F)c2ccc(F)cc2)nn1 | 64.1
21 | CC1COCCN1c1cc(-c2ccnn2C)c2ccnc(-c3ccn[nH]3)c2n1 (configuration not stated) + Nc1ccc(C#CCN(C(=O)Cc2ncc(C(F)(F)F)cc2C(F)(F)F)c2ccc(F)cc2)nn1 | 32.8
22 | CC1COCCN1c1cc(C2(S(C)(=N)=O)CC2)nc(-c2ccnc3[nH]ccc23)n1 (configuration not stated) + Nc1ccc(C#CCN(C(=O)Cc2ncc(C(F)(F)F)cc2C(F)(F)F)c2ccc(F)cc2)nn1 | 51.8
23 | COc1ccc([C@@H](O)c2cc(-c3ncnc4cc(N5CCOCC5)ccc34)c(F)cc2Cl)nn1 + Nc1ccc(C#CCN(C(=O)Cc2ncc(C(F)(F)F)cc2C(F)(F)F)c2ccc(F)cc2)nn1 | 64

Same assay, conditions: second compound 3.16 µM; first compound 0.000316 µM; hits give low values

Row | Structure (SMILES) | viability, T/C [%]
24 | Cn1ncnc1[C@H]1c2n[nH]c(=O)c3cc(F)cc(c23)N[C@@H]1c1ccc(F)cc1 + Nc1ccc(C#CCN(C(=O)Cc2ncc(C(F)(F)F)cc2C(F)(F)F)c2ccc(F)cc2)nn1 | 93.3

Same assay, conditions: second compound 3.16 µM; first compound 0.001 µM; hits give low values

Row | Structure (SMILES) | viability, T/C [%]
25 | Cn1ncnc1[C@H]1c2n[nH]c(=O)c3cc(F)cc(c23)N[C@@H]1c1ccc(F)cc1 + Nc1ccc(C#CCN(C(=O)Cc2ncc(C(F)(F)F)cc2C(F)(F)F)c2ccc(F)cc2)nn1 | 102

Same assay, conditions: second compound 3.16 µM; first compound 0.00316 µM; hits give low values

Row | Structure (SMILES) | viability, T/C [%]
26 | Cn1ncnc1[C@H]1c2n[nH]c(=O)c3cc(F)cc(c23)N[C@@H]1c1ccc(F)cc1 + Nc1ccc(C#CCN(C(=O)Cc2ncc(C(F)(F)F)cc2C(F)(F)F)c2ccc(F)cc2)nn1 | 88

Same assay, conditions: second compound 3.16 µM; first compound 0.01 µM; hits give low values

Row | Structure (SMILES) | viability, T/C [%]
27 | Cn1ncnc1[C@H]1c2n[nH]c(=O)c3cc(F)cc(c23)N[C@@H]1c1ccc(F)cc1 + Nc1ccc(C#CCN(C(=O)Cc2ncc(C(F)(F)F)cc2C(F)(F)F)c2ccc(F)cc2)nn1 | 95.7

Same assay, conditions: second compound 3.16 µM; first compound 0.0316 µM; hits give low values

Row | Structure (SMILES) | viability, T/C [%]
28 | C=CC(=O)N1CCN(c2nc(=O)n(-c3c(C)ccnc3C(C)C)c3nc(-c4c(O)cccc4F)c(F)cc23)C(C)C1 (configuration not stated) + Nc1ccc(C#CCN(C(=O)Cc2ncc(C(F)(F)F)cc2C(F)(F)F)c2ccc(F)cc2)nn1 | 87.5
29 | CC(C)n1c(=O)n(C)c2cnc3cc(F)c(-c4ccc(OCCCN5CCCCC5)nc4)cc3c21 + Nc1ccc(C#CCN(C(=O)Cc2ncc(C(F)(F)F)cc2C(F)(F)F)c2ccc(F)cc2)nn1 | 76.5
30 | CC1COCCN1c1cc(-c2ccnn2C)c2ccnc(-c3ccn[nH]3)c2n1 (configuration not stated) + Nc1ccc(C#CCN(C(=O)Cc2ncc(C(F)(F)F)cc2C(F)(F)F)c2ccc(F)cc2)nn1 | 75.9
31 | CC1COCCN1c1cc(C2(S(C)(=N)=O)CC2)nc(-c2ccnc3[nH]ccc23)n1 (configuration not stated) + Nc1ccc(C#CCN(C(=O)Cc2ncc(C(F)(F)F)cc2C(F)(F)F)c2ccc(F)cc2)nn1 | 89.9
32 | COc1ccc([C@@H](O)c2cc(-c3ncnc4cc(N5CCOCC5)ccc34)c(F)cc2Cl)nn1 + Nc1ccc(C#CCN(C(=O)Cc2ncc(C(F)(F)F)cc2C(F)(F)F)c2ccc(F)cc2)nn1 | 100
